Converted amounts (≈) assume the structure as drawn. Read-outs that look alike come from different tables or passages of the source.
How the values were obtained:
RSV A2 = test: RSV antiviral CPE assay in HEp2 cells (MTT); type: cell-based, respiratory syncytial virus; conditions: human respiratory syncytial virus, HEp-2, 120 h; HEp2 cells, RSV A2 moi ~0.01, 5 days, CPE by MTT
Method: Compounds of the invention were tested for their antiviral activity against respiratory syncytial virus. Cytopathic effect (CPE) assays were performed essentially as described in the literature (see for example Watanabe et al, 1994, J. Virological Methods, 48:257). Serial dilutions of the test compounds were made in 96 well plates. HEp2 cells (1.0×10^4 cells/well) were infected with RSV at a low multiplicity of infection (e.g. RSV A2 at an moi of ˜0.01) and added to plates to assess antiviral activity. Uninfected HEp2 cells were used to assess compound cytotoxicity. Assays were incubated for 5 days at 37° C. in a 5% CO2 atmosphere. The extent of CPE was determined via metabolism of the vital dye 3-(4,5-dimethylthiaxol-2-yl)-2,5-diphenyltetrazolium bromide (MTT). MTT (1 mg/ml) was added to each well and plates incubated for 2 hours incubation at 37° C. Wells were aspirated, iso-propanol (200 μL) was added and absorbance values read at 540/650 nm. Compound concentrations that inhibited CPE by 50% (EC50) and developed cytotoxicity (CC50) were calculated using non-linear regression analysis. The CC50 values of the compounds tested were determined to be >5000 nM.

hERG ion channel = target: T1, hERG ion channel (Homo sapiens, UniProt Q12809); test: hERG ion channel inhibition (ScreenPatch assay, IonWorks Quattro); type: cell-based; conditions: for IC50: CHO cells stably transfected with hERG; for inhibition at 5 min, 100 µM: human, CHO cells stably transfected with hERG cDNA
T1 construct: expressed in transfected cells; host or cells: CHO cells
Method: The effects of compounds of the invention on the on hERG ion channel can be evaluated using an IonWorks Quattro™ system essentially as described in the literature (see for example Bridgland-Tayor et al, 2006, J. Pharmacological and Toxicological Methods 54: 189).
Four compound concentrations were applied to naïve cells via steel needles of a 48-channel pipettor. Each application consisted of addition of 6 μL of 2× concentrated test compounds to the total of 12 μL of final volume of the extracellular well of the Population Patch Clamp™ (PPC) planar electrode. Duration of exposure to each test compound concentration was at least five minutes.
Intracellular solution was loaded into the intracellular compartment of the PPC planar electrode. Cell suspensions (CHO cells stably transfected with hERG cDNA) are pipetted into the wells of the PPC planar electrode. After establishment of a whole-cell configuration, membrane currents were recorded using patch clamp amplifier in the IonWorks Quattro™ system. Two recordings of the ion channel currents were performed (before and 5 minutes after test compound application). hERG current was measured using a pulse pattern with fixed amplitudes (conditioning prepulse: −80 mV for 25 ms; test pulse +40 mV for 80 ms) from a holding potential of 0 mV. hERG current was measured as a difference between the peak current at 1 ms after the test step to +40 mV and the steady state current at the end of the step to +40 mV.
Data acquisition and analyses was performed using the IonWorks Quattro™ system operation software. The decrease in current amplitude after test compound application was used to calculate the percent block relative to control. A compound is considered to have a low hERG inhibition when the hERG IC50 is >500 times higher than the RSV A2 EC50. The hERG IC50 of the compounds tested was >500 times higher than the corresponding RSV A2 EC50 values.

[1] = Aqueous solubility by laser nephelometry; type: physicochemical; conditions: kinetic from dmso stock, 1% DMSO, 30 minute incubation at 25° C., range 1.6-100
Method: Test compounds prepared in DMSO were screened in duplicate over a range of concentrations (1.6-100 ug/mL) in different aqueous media (for example pH2 or pH6.5 buffers which are relevant to the stomach and upper regions of the small intestine). Test compounds were serially diluted in 100% DMSO ranging from 10-0.16 mg/mL. These diluted compounds were then added to test plates (UV Star Griener 96 well plates) containing assay buffers with a further 1:100 dilution keeping a constant 1% DMSO concentration across the plate.

[2] = pH 2, simulated gastric fluid, pH2 buffer, read-out: Solubility at pH2
[3] = pH 6.5, aqueous buffer, pH6.5 buffer, read-out: Solubility at pH6.5

T1 sequence (Q12809 whole entry): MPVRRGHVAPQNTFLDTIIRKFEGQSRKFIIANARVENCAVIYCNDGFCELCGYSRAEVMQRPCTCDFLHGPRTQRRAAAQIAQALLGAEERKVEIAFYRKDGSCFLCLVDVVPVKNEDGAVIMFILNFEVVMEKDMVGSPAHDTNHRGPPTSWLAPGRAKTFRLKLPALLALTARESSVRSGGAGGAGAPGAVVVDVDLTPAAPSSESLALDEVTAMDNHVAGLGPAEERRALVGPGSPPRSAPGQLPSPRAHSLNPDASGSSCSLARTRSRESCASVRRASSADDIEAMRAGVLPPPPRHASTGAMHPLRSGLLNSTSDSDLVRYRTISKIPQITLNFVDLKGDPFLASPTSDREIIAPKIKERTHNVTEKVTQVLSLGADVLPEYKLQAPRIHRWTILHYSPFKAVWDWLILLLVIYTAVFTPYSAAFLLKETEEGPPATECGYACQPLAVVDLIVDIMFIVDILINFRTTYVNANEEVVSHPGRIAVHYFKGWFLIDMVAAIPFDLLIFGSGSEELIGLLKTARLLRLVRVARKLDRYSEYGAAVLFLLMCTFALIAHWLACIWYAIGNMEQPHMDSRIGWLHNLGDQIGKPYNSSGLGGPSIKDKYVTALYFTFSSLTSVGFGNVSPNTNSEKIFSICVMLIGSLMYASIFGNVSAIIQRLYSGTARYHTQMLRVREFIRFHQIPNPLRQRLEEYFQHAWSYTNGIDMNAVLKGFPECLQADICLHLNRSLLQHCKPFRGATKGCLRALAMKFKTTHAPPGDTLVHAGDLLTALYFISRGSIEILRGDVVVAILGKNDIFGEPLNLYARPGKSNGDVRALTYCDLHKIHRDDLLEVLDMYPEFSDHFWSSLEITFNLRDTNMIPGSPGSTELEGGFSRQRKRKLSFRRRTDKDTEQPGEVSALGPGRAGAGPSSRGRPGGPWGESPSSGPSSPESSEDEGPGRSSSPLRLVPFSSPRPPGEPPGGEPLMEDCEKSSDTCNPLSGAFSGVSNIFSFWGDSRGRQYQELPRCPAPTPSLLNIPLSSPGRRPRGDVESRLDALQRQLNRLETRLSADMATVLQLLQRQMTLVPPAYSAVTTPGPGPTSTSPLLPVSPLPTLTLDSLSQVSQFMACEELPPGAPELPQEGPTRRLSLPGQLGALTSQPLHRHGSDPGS

| SMILES | EC50 (RSV A2) [nM] | IC50 (hERG ion channel) [nM] | inhibition at 5 min, 100 µM (hERG ion channel) [%] | solubility at 30 min [1, 2] [µg/mL] | solubility at 30 min [1, 3] [µg/mL] |
| --- | --- | --- | --- | --- | --- |
| Cc1nocc1C(=O)N1CCN2C(=O)c3ncccc3C[C@]12c1ccc(Cl)cc1 (single isomer, unassigned) [Compound 2A] | 4.1 | 130000 | 41.4 | 50 to 100 (≈ 122 to 245 µM) | > 100 |
| Cc1nocc1C(=O)N1CCN2C(=O)c3ncccc3CC12c1ccc(Cl)cc1 (stereo not shown) [Compound 2, 10a-(4-chlorophenyl)-1-[(3-methyl-1,2-oxazol-4-yl)carbonyl]-2,3,10,10a-tetrahydroimidazo[2,1-g][1,7]naphthyridin-5(1H)-one] | 5.2 | 99200 | 50.2 | 50 to 100 (≈ 122 to 245 µM) | > 100 |
| Cc1nocc1C(=O)N1CCN2C(=O)c3ncccc3CC12c1ccc2c(c1)CCO2 (stereo not shown) [Compound 14, 10a-(2,3-dihydro-1-benzofuran-5-yl)-1-[(3-methyl-1,2-oxazol-4-yl)carbonyl]-2,3,10,10a-tetrahydroimidazo[2,1-g][1,7]naphthyridin-5(1H)-one] | 13.6 | – | – | > 100 | 50 to 100 (≈ 120 to 240 µM) |
